The target in one data set is T1, EGFR (Homo sapiens, UniProt P00533).
T1 construct: purchased Reaction Biology Corporation
The data set can be described thus: HotSpot kinase enzymatic assay, EGFR. It is filed as biochemical. On the procedure:
(§1) Therefore, efforts have focused on developing new compounds with good selectivity profiles. […] Compound 8 was selective against BTK. The biochemical activities of compound 8 differed among TEC family kinases. […] The inhibitory potential of compound 8 differed between members of the EGFR family. […] The inhibitory activity of compound 8 against JAK3 was also low.
(§2) Kinase enzymatic assays for BTK, BMX, TXK, TEC, ITK, EGFR, ERBB2, ERBB4, and JAK3 were performed at Reaction Biology Corporation (www.reactionbiology.com, Malvern, PA, USA) using the HotSpot assay platform. Briefly, specific kinase/substrate pairs and the required cofactors were prepared in a reaction buffer comprising 20 mM HEPES (pH 7.5), 10 mM MgCl2, 1 mM EGTA, 0.02% Brij35, 0.02 mg/mL BSA, 0.1 mM Na3VO4, 2 mM DTT, and 1% DMSO. The compounds were added to the reaction mixture and allowed to incubate. Approximately 20 min later, a mixture of ATP (Sigma-Aldrich, St. Louis, MO, USA) and ^33P ATP (PerkinElmer, Waltham, MA, USA) was added to the reaction mixture at a final concentration of 10 μM. The reactions were performed at room temperature for 120 min; subsequently, the reactions were spotted onto P81 ion exchange filter papers (Whatman Inc., Maidstone, UK). Any unbound phosphate was removed by thoroughly washing the filter papers with 0.75% phosphoric acid. […]

Another data set addresses T2, JAK3 (Homo sapiens, UniProt P52333).
T2 construct: purchased Reaction Biology Corporation
T2 sequence (P52333 1-1124): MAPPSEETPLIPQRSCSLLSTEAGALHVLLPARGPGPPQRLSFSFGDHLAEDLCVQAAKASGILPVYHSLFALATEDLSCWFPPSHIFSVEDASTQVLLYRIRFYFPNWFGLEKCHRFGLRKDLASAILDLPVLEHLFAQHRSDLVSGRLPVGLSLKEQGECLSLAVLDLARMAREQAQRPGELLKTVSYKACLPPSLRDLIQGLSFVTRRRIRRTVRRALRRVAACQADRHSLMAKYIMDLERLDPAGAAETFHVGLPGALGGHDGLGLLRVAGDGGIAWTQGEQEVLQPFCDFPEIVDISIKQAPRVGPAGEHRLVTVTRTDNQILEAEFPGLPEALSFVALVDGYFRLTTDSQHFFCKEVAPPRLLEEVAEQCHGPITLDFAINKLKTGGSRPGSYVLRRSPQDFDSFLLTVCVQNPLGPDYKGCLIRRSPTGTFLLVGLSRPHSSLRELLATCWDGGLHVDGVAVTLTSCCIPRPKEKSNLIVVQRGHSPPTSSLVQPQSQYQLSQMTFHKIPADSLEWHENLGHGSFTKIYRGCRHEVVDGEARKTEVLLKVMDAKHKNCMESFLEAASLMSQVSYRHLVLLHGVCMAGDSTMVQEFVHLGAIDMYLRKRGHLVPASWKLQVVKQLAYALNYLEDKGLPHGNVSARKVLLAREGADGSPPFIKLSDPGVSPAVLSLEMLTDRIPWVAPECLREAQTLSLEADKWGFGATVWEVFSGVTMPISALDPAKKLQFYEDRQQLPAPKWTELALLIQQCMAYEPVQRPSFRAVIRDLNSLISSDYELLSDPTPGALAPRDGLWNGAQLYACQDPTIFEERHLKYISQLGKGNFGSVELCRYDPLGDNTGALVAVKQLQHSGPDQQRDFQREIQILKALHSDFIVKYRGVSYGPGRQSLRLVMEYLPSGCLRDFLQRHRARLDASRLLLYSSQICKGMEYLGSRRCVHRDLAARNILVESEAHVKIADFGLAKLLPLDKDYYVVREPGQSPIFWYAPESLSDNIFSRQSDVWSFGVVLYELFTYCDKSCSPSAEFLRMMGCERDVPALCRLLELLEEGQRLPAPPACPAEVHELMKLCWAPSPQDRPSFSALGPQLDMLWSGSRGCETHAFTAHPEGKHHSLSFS
The experiment in a line: HotSpot kinase enzymatic assay, JAK3. It is filed as biochemical. On the procedure: as §1, §2

In another data set the target is T3, CYP2D6 (Homo sapiens, UniProt P10635).
T3 construct: purchased Promega V9890
T3 sequence (P10635 whole entry): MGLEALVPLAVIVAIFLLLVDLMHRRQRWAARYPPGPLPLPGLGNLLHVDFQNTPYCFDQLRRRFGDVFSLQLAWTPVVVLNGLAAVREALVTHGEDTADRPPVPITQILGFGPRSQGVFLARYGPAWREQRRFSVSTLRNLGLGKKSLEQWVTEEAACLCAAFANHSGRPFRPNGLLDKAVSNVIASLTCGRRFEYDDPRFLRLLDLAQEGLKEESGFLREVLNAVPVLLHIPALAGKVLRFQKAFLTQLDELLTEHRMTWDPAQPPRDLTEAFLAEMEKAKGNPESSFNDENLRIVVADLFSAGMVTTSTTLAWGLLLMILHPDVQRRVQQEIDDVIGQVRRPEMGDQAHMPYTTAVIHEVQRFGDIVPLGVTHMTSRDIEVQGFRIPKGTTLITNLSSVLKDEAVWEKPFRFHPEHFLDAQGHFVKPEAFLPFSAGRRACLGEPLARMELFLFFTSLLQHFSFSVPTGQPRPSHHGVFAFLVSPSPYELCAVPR
The data set can be described thus: P450-Glo CYP inhibition assay, CYP2D6. It counts as in vitro ADME. As for the experimental part: The potential for CYP450 inhibition (CYP1A2, 2C9, 2C19, 2D6, and […]) was assessed using Promega P450-Glo^TM CYP450 assay systems. Luciferin-ME served as the substrate for CYP1A2, and the inhibitor α-naphthoflavone was used as a positive control. Luciferin-H was used as the substrate for CYP2C9, and the inhibitor sulfaphenazole was used as a positive control. Luciferin-H EGE was selected as the substrate for CYP2C19, whereas the inhibitor amitriptyline served as a positive control. Luciferin-ME EGE was used as the substrate for CYP2D6, whereas the inhibitor quinidine served as a positive control. Luciferin-BE was used as the substrate for CYP3A4, whereas the inhibitor ketoconazole was used as a positive control. The assays were performed using the excitation and emission wavelengths recommended by the manufacturer. Briefly, a CYP enzyme and a P450-Glo™ substrate were combined in potassium phosphate (0.1 M KPO4) buffer, with or without a test compound of interest, and […]. The reaction was initiated by adding two volumes of 2 times concentrated NADPH regeneration system. […] Luminescence was subsequently measured using a Tecan Infinite M1000 PRO microplate reader (Tecan Group Ltd., Switzerland). The percent inhibition was calculated relative to that of the positive control at a fixed concentration. […]

Data set [1] can be described thus: GIT-PAMPA in vitro permeability assay. It is filed as in vitro ADME. As for the experimental part: GIT-PAMPA was performed according to the manufacturer’s instructions (Pion Inc., Billerica, MA, USA). Briefly, the test compound was diluted in donor buffer (pH 7.4) to obtain a concentration of 50 μM. Then, 200 μL of this solution was added to the lower part of a 96-well PAMPA sandwich plate. The transmembrane side of the donor part was coated with a GIT-0 lipid solution, and 200 μL of the acceptor buffer was added to the upper part of the PAMPA sandwich plate. After incubating for 4 h at 25 °C, each sample was transferred to a fresh UV plate, after which the UV spectra were measured at wavelengths of 250–498 nm, and the permeability rate (Pe, 10^−6 cm/sec) was analyzed using the Pion PAMPA Explorer software (version 3.8, Pion Inc., Billerica, MA, USA).

T1 sequence (P00533 25-1210): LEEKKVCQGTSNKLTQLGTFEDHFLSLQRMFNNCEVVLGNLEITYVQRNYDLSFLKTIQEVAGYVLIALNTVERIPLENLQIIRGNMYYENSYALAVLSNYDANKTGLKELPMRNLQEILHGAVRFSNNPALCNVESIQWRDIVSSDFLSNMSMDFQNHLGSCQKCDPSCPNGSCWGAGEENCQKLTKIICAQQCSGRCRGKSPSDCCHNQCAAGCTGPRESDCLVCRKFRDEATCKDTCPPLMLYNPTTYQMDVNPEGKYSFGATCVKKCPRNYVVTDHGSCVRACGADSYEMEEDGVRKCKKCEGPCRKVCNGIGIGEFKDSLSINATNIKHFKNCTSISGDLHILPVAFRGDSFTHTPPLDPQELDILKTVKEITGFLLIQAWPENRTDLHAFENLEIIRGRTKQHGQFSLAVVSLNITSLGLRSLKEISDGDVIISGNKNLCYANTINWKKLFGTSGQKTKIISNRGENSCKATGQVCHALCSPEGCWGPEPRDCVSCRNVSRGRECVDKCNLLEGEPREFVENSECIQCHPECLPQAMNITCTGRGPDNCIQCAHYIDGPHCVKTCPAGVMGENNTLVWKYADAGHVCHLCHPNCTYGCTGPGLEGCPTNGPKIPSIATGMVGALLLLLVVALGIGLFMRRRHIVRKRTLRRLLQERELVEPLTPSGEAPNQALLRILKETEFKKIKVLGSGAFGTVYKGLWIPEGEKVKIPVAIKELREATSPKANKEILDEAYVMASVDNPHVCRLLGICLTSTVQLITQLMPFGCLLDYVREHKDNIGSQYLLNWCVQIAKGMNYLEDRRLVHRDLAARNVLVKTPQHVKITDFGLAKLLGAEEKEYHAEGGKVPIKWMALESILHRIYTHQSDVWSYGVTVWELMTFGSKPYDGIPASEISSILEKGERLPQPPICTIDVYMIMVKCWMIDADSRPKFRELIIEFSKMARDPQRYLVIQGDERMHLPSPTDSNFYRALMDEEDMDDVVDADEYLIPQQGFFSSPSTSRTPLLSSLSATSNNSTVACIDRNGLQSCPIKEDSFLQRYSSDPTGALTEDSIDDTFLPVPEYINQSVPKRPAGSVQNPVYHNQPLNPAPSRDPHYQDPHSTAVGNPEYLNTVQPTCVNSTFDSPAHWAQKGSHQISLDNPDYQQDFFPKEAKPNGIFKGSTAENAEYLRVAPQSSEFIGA

Regarding `C=CC(=O)O[C@H]1Cc2cc3ccc(=O)oc3cc2OC1(C)C` [Compound 8, (7S)-(+)-Acrylic acid, 8,8-dimethyl-2-oxo-6,7-dihydro-2H,8H-pyrano [3,2-g]chromen-7-yl ester], the “inhibitory activity against EGFR (in words)” value at EGFR is “weak inhibitory activity”. The inhibition at 10 µM at EGFR (10 µM, mean of two experiments) came out at 32.9%; against JAK3 (10 µM, mean of two experiments), 13.2%. Moreover, the “inhibitory activity against JAK3 (in words)” value on JAK3 is “low”. Also, the “CYP2D6 inhibition (in words)” value on CYP2D6 is recorded as “weakly inhibited”. The “CYP inhibition 2D6” value at CYP2D6 (% inhibition of human CYP isozymes at 10 μM) was 18.9%. Besides, the “permeability (in words)” value in data set [1] was “excellent”.

Broadly, the inhibition is how much of the control response was suppressed.

The values above are taken from paper PMC7663272, “Discovery of Tricyclic Pyranochromenone as Novel Bruton’s Tyrosine Kinase Inhibitors with In Vivo Antirheumatic Activity” (International Journal of Molecular Sciences, 2020).
